One test concerns TFE3. The test can be described thus: TFE3 nuclear translocation time course in transfected N2A cells. Format: cell-based, mouse. The conditions noted are these: for TFE3 nuclear translocation (i.e., activation): overall statement, GFP-TFE3 transfected N2A cells, acute treatment. On the procedure:
Treatment with AF38469 stimulates TFE3 nuclear translocation as monitored via time course study. For (A) and (B), wild type N2A cells were plated and transfected with a pEGFP-N1-TFE3 plasmid for a 24-hour incubation. Cells were treated with vehicle or AF38469 (40 nM, 400 nM) for three hours then immunocytochemistry was performed with anti-GFP (Abcam, ab13970) and 4′, -diamidino-2-phenylindole-dihydrochloride (DAPI). Cells were imaged on the Nikon AIR confocal microscope. For (C), wild type N2A cells were plated and transfected with a pEGFP-N1-TFE3 plasmid for a 24-hour incubation. Cells were dyed and imaged on the CellInsight™ CX7 High-Content Screening Platform (CX7) then treated with media containing vehicle or AF38469 (40 nM, 400 nM). Cells were imaged every 30 minutes for three hours on the CX7 with incubation between imaging sessions, and results were quantified. The statistics were analyzed using Graphpad Prism™. One-way ANOVA. Mean±S.E.M. Dunnett's multiple comparisons test compared to the vehicle treated group. *p<0.05, **p<0.01, ***p<0.001, ****p<0.0001. […] TFEB is a transcription factor that stimulates transcription of genes that are necessary for lysosomal biogenesis and function. Thus, increased TFE3 nuclear translocation is expected to stimulate lysosomal biogenesis and function.
Since LM11A-31 improves lysosomal health and function across diverse cell models of lysosomal storage disorders, we asked whether the drug could be activating transcriptional networks that regulate lysosomal function. The transcription factors TFEB and TFE3 are master regulators of lysosomal biogenesis and function. We hypothesized that LM11A-31 could exert benefits by modulating the nuclear translocation of TFEB and/or TFE3. We tested this in an in vitro system in which GFP fusions of TFEB or TFE3 are expressed and monitored with live imaging (FIG. 15A).

A further test has as its system TFEB. Put plainly: TFEB nuclear translocation time course in transfected N2A cells. The conditions noted are these: for TFEB nuclear translocation: N2A cells; for TFEB nuclear translocation (i.e., activation): overall statement, GFP-TFEB transfected N2A cells, acute treatment. It is filed as cell-based, mouse. On the procedure:
FIG. 15(A-B). Treatment with LM11A-31 stimulates TFEB nuclear translocation as monitored via time course study. For (A), wild type neuro 2A […] neuroblastoma (N2A) cells were plated and transfected with a pEGFP-N1-TFEB plasmid for a 24-hour incubation. Cells were dyed and imaged on the CellInsight™ CX7 High-Content Screening Platform (CX7) then treated with media containing vehicle or LM11A-31 (100 nM, 1 μM). Cells were imaged every 30 minutes for three hours on the CX7 with incubation between imaging sessions, and results were quantified. The statistics were analyzed using Graphpad Prism™. One-way ANOVA. Mean S.E.M. Dunnett's multiple comparisons test compared to the vehicle treated group. *p<0.05, **p<0.01, ***p<0.001, ****p<0.0001. Quantification of TFEB nuclear translocation after treatment with vehicle or LM11A-31 (100 nM, 1 μM). […] (B) Since LM11A-31 increases the expression of lysosomal genes including the PPT1 and TPP1, and Cathepsin D enzymes, we asked whether LM11A-31 increases the overall activity levels of these enzymes in cellulo. Wild type (WT) and mutant cells were treated with vehicle or LM11A-31 (100 nM). Cells were plated on day 0 and dosed with drug-containing media on DIV3 and DIV5. Cells were lysed, and protein quantification and enzyme activity assay were performed on DIV7. Data was analyzed with GraphPad Prism™. Two-way ANOVA. Mean S.E.M. Tukey's multiple comparisons test. *p<0.05, **p<0.01, ***p<0.001. ****p<0.0001.
Treatment with AF38469 stimulates TFEB nuclear translocation as monitored via time course study. For (A) and (B), wild type neuro 2A […] neuroblastoma (N2A) cells were plated and transfected with a pEGFP-N1-TFEB plasmid for a 24-hour incubation. Cells were treated with vehicle or AF38469 (40 nM, 400 nM) for three hours then immunocytochemistry was performed with anti-GFP (Abcam, ab13970) and 4′, -diamidino-2-phenylindole-dihydrochloride (DAPI). Cells were imaged on the Nikon AIR confocal microscope. For (C), wild type N2A cells were plated and transfected with a pEGFP-N1-TFEB plasmid for a 24-hour incubation. Cells were dyed and imaged on the CellInsight™ CX7 High-Content Screening Platform (CX7) then treated with media containing vehicle or AF38469 (40 nM, 400 nM). Cells were imaged every 30 minutes for three hours on the CX7 with incubation between imaging sessions, and results were quantified. The statistics were analyzed using Graphpad Prism™. One-way ANOVA. Mean±S.E.M. Dunnett's multiple comparisons test compared to the vehicle treated group. *p<0.05,**p<0.01, ***p<0.001, ****p<0.0001. […] TFEB is a transcription factor that stimulates transcription of genes that are necessary for lysosomal biogenesis and function. Thus, increased TFEB nuclear translocation is expected to stimulate lysosomal biogenesis and function.

Another test deals with Cln3^Δex7/8 mice. Put plainly: SubC burden (immunohistochemistry) in brain of Cln3^Δex7/8 mice. Format: in vivo, mouse.

Regarding `Cc1cccc(NC(=O)c2ccc(C(F)(F)F)cc2C(=O)O)n1` [AF38469, 2-((6-methylpyridin-2-yl)carbamoyl)-5-(trifluoromethyl)benzoic acid], the TFE3 nuclear translocation entry in the test with TFE3 (40 nM and 400 nM, 90 minutes of incubation, N2A cells, vs vehicle) is recorded as “significant increase”; with TFE3 (40 nM, 180 minutes of incubation, N2A cells), “return to baseline”; in the test with TFE3 (400 nM, 180 minutes of incubation, N2A cells), “trend towards increased nuclear translocation”. In addition, in the test with TFE3, the “TFE3 nuclear translocation (i.e., activation)” value is recorded as “stimulates”. Moreover, the TFEB nuclear translocation entry with TFEB (40 nM and 400 nM, 180 minutes of incubation, vs vehicle) is given as “significant increase”; in the test with TFEB (40 nM, 90 minutes of incubation, vs vehicle) it was “significant increase”. Further, in the test with TFEB, the “TFEB nuclear translocation (i.e., activation)” value is “stimulated”. Further, the SubC accumulation entry in the test on Cln3^Δex7/8 mice (overall statement, short term treatment, Cln3^Δex7/8) is given as “reduces”.
Turning to `CC[C@H](C)[C@H](N)C(=O)NCCN1CCOCC1` [LM11A-31, N-[2-(morpholin-4-yl)ethyl]-L-isoleucinamide], the TFE3 nuclear translocation result with TFE3 (100 nM and 1 μM, 90 minutes of incubation) was “significant increase”. In addition, the “TFE3 nuclear translocation (i.e., activation)” value with TFE3 is “stimulated”. For the same molecule, the TFEB nuclear translocation result in the test on TFEB (100 nM and 1 μM, 180 minutes of incubation) is “increasing trend continued”; with TFEB (100 nM, 90 minutes of incubation), “significant increase”. In the test with TFEB, the “TFEB nuclear translocation (i.e., activation)” value is “stimulated”.
Take semaglutide: the SubC burden result with Cln3^Δex7/8 mice (semaglutide 2.571 μg/mouse s.c., CA3 of the hippocampus) is given as “had no significant effect”; in the test with Cln3^Δex7/8 mice (semaglutide 2.571 μg/mouse s.c., VPM/VPL of the thalamus), “had no significant effect”; in the test on Cln3^Δex7/8 mice (semaglutide 25.71 μg/mouse s.c., CA3 of the hippocampus), “significantly reduced”; in the test on Cln3^Δex7/8 mice (semaglutide 25.71 μg/mouse s.c., VPM/VPL of the thalamus), “significantly elevated”. Moreover, the “accumulation of mitochondrial ATP synthase subunit C (SubC)” value with Cln3^Δex7/8 mice (semaglutide 2.571 μg/mouse, 25.71 μg/mouse s.c., S1BF of the somatosensory cortex) was “had no significant effect”.

The values are drawn from US20240197700A1, “Methods and Compositions for Treating Lysosomal Storage Disorders” (Sanford Health, priority 2021, published 2024).
